Tests used:
[1] = test system: Histone H2AX (γH2AX); test: γH2AX formation in human fibroblasts by immunofluorescent microscopy; assay type: cell-based; settings: 48 hours
Experimental: Phosphorylation of Histone H2AX (forming γH2AX) is a marker for DNA damage in many settings and is also observed at telomeres when cells enter senescence. […] In both experiments, cells were incubated for 48 hours in the presence of SPOX-1 or 11mer T-oligo before processing for immunofluorescent microscopy.

[2] = test system: human fibroblasts; test: growth of newborn fibroblast cells; assay type: cell-based; settings: 40 μM; growth determined 2 and 4 days after plating
Experimental: The effect of SPOX compounds on growth of human fibroblasts was tested using cultures of newborn fibroblast cells. Briefly, 20,000 cells were plated per 35 mm dish. Medium containing either diluent (dimethyl sulfoxide (DMSO)) alone, SPOX-1 (40 μM) SPOX-2 (40 μM) or 11mer T-oligo (SEQ ID NO:1) was introduced at 96 hours and growth was determined 2 and 4 days after plating.

[3] = test system: MM-AN human melanoma cells; test: apoptosis of MM-AN melanoma cells by FACS analysis (propidium iodide); assay type: cell-based; settings: 96 hours, 10 μM, 40 μM and 80 μM
Experimental: Cultures of MM-AN human melanoma cells were treated with diluent (water or DMSO) alone, a T-oligo (16mer: 5′ GTTAGGGTTAGGGTTA 3′; SEQ ID NO: 2), SPOX-1, or SPOX-2 for 96 hours, then collected and processed for FACS analysis. One concentration of the T-oligo (20 μM) and three concentrations of each SPOX compound (10 μM, 40 μM and 80 μM) were tested. Each bar is the mean of triplicate dishes +/− standard error of the mean (SEM). FACS profiles are depicted at the top of the figure.
Cultures of MM-AN human melanoma cells were treated with diluent (water or DMSO) alone, 16mer T-oligo (SEQ ID NO: 2), SPOX-337, SPOX-338 or SPOX-343 for 72 hours, then collected and processed for FACS analysis. One concentration of the T-oligo (20 μM) and three concentrations of each SPOX compound (10 μM, 40 μM and 80 μM) were tested.

[4] = test system: MM-AN human melanoma cells; test: growth of MM-AN melanoma cells; assay type: cell-based; settings: 40 μM; 2, 3 and 4 days after treatment
Experimental: The effect of SPOX compounds on growth of human melanoma cells was tested using cultures of MM-AN cells. Briefly, 20,000 MM-AN cells were plated per 35 mm dish. Medium containing either diluent (DMSO) alone, SPOX-1 or SPOX-2 (40 μM) was introduced at 96 hours and growth was determined 2, 3 and 4 days after treatment.

[5] = test system: MCF-7 cells; test: growth of MCF-7 breast cancer cells; assay type: cell-based, human; settings: 40 μM and 80 μM
Experimental: The effect of SPOX compounds on growth and apoptosis of human breast cancer cells was tested using cultures of MCF-7 cells. The effect on cell growth was tested by plating 20,000 cells per 35 mm dish. Medium containing either diluent alone (DMSO), SPOX-1 or SPOX-2 (10 μM, 40 μM and 80 μM) was introduced at 96 hours and growth was determined 8 days after plating.
The effect of SPOX compounds on growth of human breast cancer cells was tested using cultures of MCF-7 cells. The effect on cell growth was tested by plating 20,000 cells per 35 mm dish. Medium containing either diluent (water or DMSO) alone, SPOX-337, SPOX-388, SPOX-343 (10 μM, 40 μM and 80 μM) or 16mer T-oligo (SEQ ID NO: 2) was introduced at 96 hours and growth was determined 3 days after plating.

[6] = test system: Histone H2AX (γH2AX); test: γH2AX formation in MCF-7 cells, western blot; assay type: cell-based, human; settings: compared with 16mer T-oligo
Experimental: (§1) Phosphorylation of Histone H2AX (forming γH2AX) was assessed as a marker for DNA damage. Apoptosis was measured by western blot analysis to show cleavage of poly(ADP-ribose) polymerase (PARP). PARP is a substrate for caspase-3, an enzyme that mediates apoptosis, and thus cleavage of PARP by caspase-3 is indicative of ongoing apoptosis. […] Thus, both SPOX compounds induce apoptosis and formation of γH2AX, as a marker of DNA damage-like responses, in the MCF-7 breast cancer cell line.

[7] = test system: poly(ADP-ribose) polymerase (PARP); test: PARP cleavage in MCF-7 cells, western blot; assay type: cell-based, human; settings: compared with TNF-α
Experimental: as §1

[8] = test system: WRN+ U20S human osteosarcoma cells; test: apoptosis of WRN+ U20S cells by FACS analysis; assay type: cell-based; settings: 96 hours; 10 μM, 40 μM and 80 μM
Experimental: (§2) Cultures of WRN+ and WRN− U20S human osteosarcoma cells were treated with either diluent (water or DMSO) alone, 16mer T-oligo (SEQ ID NO: 2) or SPOX-1 for 96 hours, then collected and processed for FACS analysis. One concentration of the 16mer T-oligo was tested, 20 μM, and three concentrations of SPOX-1 were tested, 10 μM, 40 μM and 80 μM.

[9] = test system: WRN− U20S human osteosarcoma cells; test: apoptosis of WRN− U20S cells by FACS analysis; assay type: cell-based; settings: 96 hours; 40 μM and 80 μM
Experimental: as §2

[10] = test system: human skin explants; test: melanogenesis in human skin explants (Fontana Masson stain, image analysis); assay type: cell-based; settings: 80 uM; 24, 48 and 72 hours; positive control pTT 100 uM
Experimental: Normal facial skin removed from a person at the time of facelift was carefully cut into fragments approximately 5×5 mm. The fragments were placed in tissue culture dishes in standard culture medium, under conditions known to maintain the fragments in good condition, responsive to physiologic stimuli, for at least one week (Arad et al, FASEB J. Jul. 28, 2006. [Epub]). Fragments were arranged with at least 3 per 35 mm dish and after 48 hours, one dish each was provided with fresh medium containing diluent (DMSO) alone (Dil) or SPOX-1 or SPOX-2 each at 80 uM or thymidine dinucleotide (pTT) at 100 uM as a positive control. […] The 72 hour diluent (Dil) control sample was judged to be bacterially contaminated, affecting both the overall histology and the apparent melanin content, which based on earlier experiments would be expected to be the same as at 24 and 48 hours. All other samples were believed to be healthy and to accurately represent the response to treatment.

[11] = test system: survivin; test: survivin expression in H460 lung cancer cells; assay type: cell-based, human
Experimental: The ability of the SPOX compounds to inhibit expression of survivin, a member of the Inhibitor of Apoptosis Protein (IAP) family, was determined by treating H460 human lung cancer cells for two days with diluent (DMSO) alone, SPOX-1 (20 μM, 40 μM), SPOX-2 (20 μM, 40 μM) and T-oligo (16mer: 5′ GGTTGGTTGGTTGGTT 3′; SEQ ID NO: 3) (20 μM, 40 μM) or for 24 hours with SPOX-1 (80 μM) or SPOX-2 (80 μM). Following treatment, cells were collected, counted, and assayed for survivin expression. The results are depicted in FIG. 15.

[12] = test system: H460 human lung cancer cells; test: growth of H460 lung cancer cells; assay type: cell-based; settings: 40 μM; 1, 2, 3 and 4 days after plating
Experimental: The effect of SPOX compounds on growth of human lung cancer cells was tested using cultures of H460 cells. Briefly, 20,000H460 cells were plated per 35 mm dish. Medium containing either diluent (DMSO) alone, SPOX-1 or SPOX-2 (40 μM) was introduced at 96 hours and growth was determined 1, 2, 3 and 4 days after plating.

[13] = test system: p53; test: p53 level in human fibroblasts, Western blot; assay type: cell-based; settings: 48 hours, compared with diluent alone
Experimental: (§3) Human fibroblasts were treated with diluent (water or DMSO) alone, SPOX-1, SPOX-2, or 16mer T-oligo (SEQ ID NO: 2) for 48 hours after which total cellular proteins were harvested and Western blot analysis performed using anti-p53 and anti-p21 antibodies.

[14] = test system: p21; test: p21 level in human fibroblasts, Western blot; assay type: cell-based; settings: 48 hours, compared with diluent alone
Experimental: as §3

C=CCOC(=O)C1C2C(=O)OC(c3ccccc3)C(c3ccccc3)N2C(c2ccc(O)cc2)C12C(=O)Nc1ccc(I)cc12 (centres unmarked) [SPOX-1]
γH2AX expression [1]: induce γH2AX expression
growth of human fibroblast cells [2]: inhibited growth
induction of apoptosis [3]: induced apoptosis with SPOX-1 having a greater effect
growth of MM-AN cells [4]: inhibited growth
growth of MCF-7 cells ([5]; 10 μM, growth determined 8 days after plating): inhibited growth of MCF-7 cells in a dose-dependent manner
growth of MCF-7 cells at higher concentrations ([5]; 8 days after plating): nearly complete inhibition of growth
phosphorylation of histone H2AX (γH2AX) [6]: cause phosphorylation of the histone protein H2AX
PARP cleavage [7]: cause PARP cleavage
induction of apoptosis in WRN+ U20S cells [8]: induced apoptosis in WRN+ U20S cells in a dose-dependent manner
induction of apoptosis in WRN− U20S cells [9]: apoptosis was also seen
melanogenesis (tanning) in human skin [10]: caused tanning, comparable to pTT
survivin expression at 80 μM ([11]; 24 hours, 80 μM): reduced survivin expression to nearly undetectable levels
survivin expression ([11]; 2 days, 20 μM, 40 μM): dose-dependent reduction in survivin expression
survivin expression at 40 μM ([11]; 2 days, 40 μM): nearly undetectable
growth of H460 cells [12]: inhibited growth
level of p53 [13]: induced the level of p53
level of p21 [14]: induced the level of the p53-dependent downstream effector protein p21 to a similar degree as 16mer T-oligo

From patent US20100093716A1, “THERAPEUTIC METHODS USING WRN BINDING MOLECULES” (TRUSTEES OF BOSTON UNIVERSITY AND PRESIDENT AND FELLOWS OF …, priority 2006, published 2010)
